# Data reported in ChEMBL document CHEMBL4017490, “Design, Synthesis, and Pharmacological Evaluation of Novel Multisubstituted Pyridin-3-amine Derivatives as Multitargeted Protein Kinase Inhibitors for the Treatment of Non-Small Cell Lung Cancer” (J Med Chem, 2017).
# Experiments:
# [1] = biological target: Proto-oncogene tyrosine-protein kinase receptor Ret (Homo sapiens, UniProt P07949); experiment: Inhibition of recombinant Ret (unknown origin) using poly (Glu,Tyr) 4:1 as substrate after 60 mins by ELISA
# [2] = biological target: Leukocyte tyrosine kinase receptor (Homo sapiens, UniProt P29376); experiment: Inhibition of recombinant LTK (unknown origin) using poly (Glu,Tyr) 4:1 as substrate after 60 mins by ELISA
# Sequence of Leukocyte tyrosine kinase receptor (P29376 whole entry): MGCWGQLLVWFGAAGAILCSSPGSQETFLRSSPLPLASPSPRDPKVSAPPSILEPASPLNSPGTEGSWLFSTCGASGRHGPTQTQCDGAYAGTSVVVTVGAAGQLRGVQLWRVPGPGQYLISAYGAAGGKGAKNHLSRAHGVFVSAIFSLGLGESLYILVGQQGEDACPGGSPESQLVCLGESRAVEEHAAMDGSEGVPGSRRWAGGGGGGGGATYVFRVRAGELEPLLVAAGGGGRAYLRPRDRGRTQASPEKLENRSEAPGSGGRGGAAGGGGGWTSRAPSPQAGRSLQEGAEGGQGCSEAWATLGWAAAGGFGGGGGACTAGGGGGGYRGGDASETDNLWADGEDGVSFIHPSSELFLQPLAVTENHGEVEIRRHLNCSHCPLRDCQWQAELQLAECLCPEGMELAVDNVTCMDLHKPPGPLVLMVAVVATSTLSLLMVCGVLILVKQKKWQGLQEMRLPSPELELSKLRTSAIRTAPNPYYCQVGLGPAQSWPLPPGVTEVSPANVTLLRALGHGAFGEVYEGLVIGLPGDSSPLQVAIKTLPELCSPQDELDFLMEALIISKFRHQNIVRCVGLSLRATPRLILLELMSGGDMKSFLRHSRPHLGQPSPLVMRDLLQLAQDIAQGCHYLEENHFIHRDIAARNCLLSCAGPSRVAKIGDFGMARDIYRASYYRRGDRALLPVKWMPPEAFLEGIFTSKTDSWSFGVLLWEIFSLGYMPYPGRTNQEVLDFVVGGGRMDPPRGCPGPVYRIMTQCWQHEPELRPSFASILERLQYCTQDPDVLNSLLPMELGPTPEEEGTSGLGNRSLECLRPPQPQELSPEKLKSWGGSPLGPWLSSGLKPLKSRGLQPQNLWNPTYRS
# [3] = biological target: ALK tyrosine kinase receptor (Homo sapiens, UniProt Q9UM73)
# Description: Inhibition of recombinant ALK (unknown origin) using poly (Glu,Tyr) 4:1 as substrate after 60 mins by ELISA
# [4] = biological target: Hepatocyte growth factor receptor (Homo sapiens, UniProt P08581); experiment: Inhibition of recombinant c-Met (unknown origin) using poly (Glu,Tyr) 4:1 as substrate after 60 mins by ELISA
# [5] = biological target: Epidermal growth factor receptor (Homo sapiens, UniProt P00533)
# Description: Inhibition of recombinant EGFR (unknown origin) using poly (Glu,Tyr) 4:1 as substrate after 60 mins by ELISA
# [6] = biological target: Ephrin type-A receptor 2 (Homo sapiens, UniProt P29317); experiment: Inhibition of recombinant EPH-A2 (unknown origin) using poly (Glu,Tyr) 4:1 as substrate after 60 mins by ELISA
# [7] = biological target: Platelet-derived growth factor receptor alpha (Homo sapiens, UniProt P16234); experiment: Inhibition of recombinant PDGFR-alpha (unknown origin) using poly (Glu,Tyr) 4:1 as substrate after 60 mins by ELISA
# Sequence of Platelet-derived growth factor receptor alpha (P16234 whole entry): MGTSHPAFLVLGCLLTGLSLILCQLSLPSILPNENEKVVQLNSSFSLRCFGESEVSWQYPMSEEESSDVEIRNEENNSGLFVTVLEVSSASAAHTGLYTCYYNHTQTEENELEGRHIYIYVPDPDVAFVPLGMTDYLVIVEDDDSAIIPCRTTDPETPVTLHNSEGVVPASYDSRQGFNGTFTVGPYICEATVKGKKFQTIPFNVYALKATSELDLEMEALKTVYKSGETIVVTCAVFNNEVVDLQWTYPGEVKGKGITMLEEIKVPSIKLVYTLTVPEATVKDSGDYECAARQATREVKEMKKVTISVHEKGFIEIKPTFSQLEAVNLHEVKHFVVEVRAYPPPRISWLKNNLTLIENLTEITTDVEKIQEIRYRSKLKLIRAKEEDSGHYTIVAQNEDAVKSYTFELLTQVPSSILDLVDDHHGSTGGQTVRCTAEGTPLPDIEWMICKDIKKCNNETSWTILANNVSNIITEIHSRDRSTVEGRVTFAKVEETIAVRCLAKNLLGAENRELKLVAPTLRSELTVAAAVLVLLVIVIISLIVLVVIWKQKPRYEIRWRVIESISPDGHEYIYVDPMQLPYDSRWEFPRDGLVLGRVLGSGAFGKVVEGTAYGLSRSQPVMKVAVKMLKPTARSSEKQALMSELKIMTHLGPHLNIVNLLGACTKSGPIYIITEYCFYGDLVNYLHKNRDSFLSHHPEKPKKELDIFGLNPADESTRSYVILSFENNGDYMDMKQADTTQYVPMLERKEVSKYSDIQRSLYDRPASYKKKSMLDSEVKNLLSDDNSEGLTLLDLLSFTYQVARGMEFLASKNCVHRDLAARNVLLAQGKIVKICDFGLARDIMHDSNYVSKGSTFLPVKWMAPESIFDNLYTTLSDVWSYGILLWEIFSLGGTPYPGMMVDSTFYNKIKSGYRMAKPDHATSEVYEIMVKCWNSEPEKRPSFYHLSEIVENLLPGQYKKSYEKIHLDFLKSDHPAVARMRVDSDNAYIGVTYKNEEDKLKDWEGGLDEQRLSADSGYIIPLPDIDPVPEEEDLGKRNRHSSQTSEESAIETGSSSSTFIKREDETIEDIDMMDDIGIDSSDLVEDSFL
# [8] = biological target: Proto-oncogene tyrosine-protein kinase Src (Homo sapiens, UniProt P12931); experiment: Inhibition of recombinant c-Src (unknown origin) using poly (Glu,Tyr) 4:1 as substrate after 60 mins by ELISA
# Sequence of Proto-oncogene tyrosine-protein kinase Src (P12931 2-536 limits assumed): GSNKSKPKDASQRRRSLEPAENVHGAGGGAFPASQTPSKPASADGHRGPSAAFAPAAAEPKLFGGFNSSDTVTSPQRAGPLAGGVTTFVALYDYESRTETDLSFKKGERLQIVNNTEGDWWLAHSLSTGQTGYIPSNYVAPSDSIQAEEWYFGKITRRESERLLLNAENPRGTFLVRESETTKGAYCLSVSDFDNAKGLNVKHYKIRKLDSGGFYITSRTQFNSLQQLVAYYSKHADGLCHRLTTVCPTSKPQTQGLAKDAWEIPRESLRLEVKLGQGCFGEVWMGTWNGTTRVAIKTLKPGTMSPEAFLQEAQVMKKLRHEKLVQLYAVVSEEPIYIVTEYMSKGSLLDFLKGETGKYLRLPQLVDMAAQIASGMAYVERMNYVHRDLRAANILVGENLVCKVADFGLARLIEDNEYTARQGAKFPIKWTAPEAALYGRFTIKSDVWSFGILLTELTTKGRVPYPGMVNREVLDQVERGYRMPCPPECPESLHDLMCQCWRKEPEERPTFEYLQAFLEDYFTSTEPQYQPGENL
# [9] = biological target: T1, Tyrosine-protein kinase Mer (Homo sapiens, UniProt Q12866); experiment: Inhibition of recombinant Mer (unknown origin) using poly (Glu,Tyr) 4:1 as substrate after 60 mins by ELISA
# T1 sequence (Q12866 whole entry): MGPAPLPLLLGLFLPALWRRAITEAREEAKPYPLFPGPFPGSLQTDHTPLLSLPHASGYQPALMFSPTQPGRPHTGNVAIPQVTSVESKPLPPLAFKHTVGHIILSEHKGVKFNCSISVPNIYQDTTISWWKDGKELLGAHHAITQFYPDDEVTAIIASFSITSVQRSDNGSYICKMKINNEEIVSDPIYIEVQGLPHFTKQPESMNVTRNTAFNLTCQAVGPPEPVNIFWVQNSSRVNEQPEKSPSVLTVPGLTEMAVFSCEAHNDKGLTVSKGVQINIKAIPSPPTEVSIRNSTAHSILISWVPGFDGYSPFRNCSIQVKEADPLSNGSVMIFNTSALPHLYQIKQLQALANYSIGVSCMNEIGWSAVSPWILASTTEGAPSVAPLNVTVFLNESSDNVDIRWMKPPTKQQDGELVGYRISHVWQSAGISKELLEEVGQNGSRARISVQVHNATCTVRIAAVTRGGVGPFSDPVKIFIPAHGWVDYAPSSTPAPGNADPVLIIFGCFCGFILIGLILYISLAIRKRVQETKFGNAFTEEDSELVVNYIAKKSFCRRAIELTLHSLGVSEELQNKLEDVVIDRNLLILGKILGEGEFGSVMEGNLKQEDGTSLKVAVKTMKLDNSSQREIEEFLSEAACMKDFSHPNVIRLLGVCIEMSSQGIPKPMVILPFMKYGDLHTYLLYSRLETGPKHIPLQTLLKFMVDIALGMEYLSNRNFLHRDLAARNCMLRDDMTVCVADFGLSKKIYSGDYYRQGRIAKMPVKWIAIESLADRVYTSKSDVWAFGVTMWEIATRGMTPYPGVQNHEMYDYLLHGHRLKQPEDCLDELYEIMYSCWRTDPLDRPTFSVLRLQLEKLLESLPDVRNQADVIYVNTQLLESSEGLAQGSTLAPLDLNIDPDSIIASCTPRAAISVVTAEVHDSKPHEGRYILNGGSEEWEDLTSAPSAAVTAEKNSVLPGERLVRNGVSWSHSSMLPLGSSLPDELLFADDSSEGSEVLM
# [10] = biological target: T2, Tyrosine-protein kinase receptor TYRO3 (Homo sapiens, UniProt Q06418); experiment: Inhibition of recombinant Tyro3 (unknown origin) using poly (Glu,Tyr) 4:1 as substrate after 60 mins by ELISA
# T2 sequence (Q06418 whole entry): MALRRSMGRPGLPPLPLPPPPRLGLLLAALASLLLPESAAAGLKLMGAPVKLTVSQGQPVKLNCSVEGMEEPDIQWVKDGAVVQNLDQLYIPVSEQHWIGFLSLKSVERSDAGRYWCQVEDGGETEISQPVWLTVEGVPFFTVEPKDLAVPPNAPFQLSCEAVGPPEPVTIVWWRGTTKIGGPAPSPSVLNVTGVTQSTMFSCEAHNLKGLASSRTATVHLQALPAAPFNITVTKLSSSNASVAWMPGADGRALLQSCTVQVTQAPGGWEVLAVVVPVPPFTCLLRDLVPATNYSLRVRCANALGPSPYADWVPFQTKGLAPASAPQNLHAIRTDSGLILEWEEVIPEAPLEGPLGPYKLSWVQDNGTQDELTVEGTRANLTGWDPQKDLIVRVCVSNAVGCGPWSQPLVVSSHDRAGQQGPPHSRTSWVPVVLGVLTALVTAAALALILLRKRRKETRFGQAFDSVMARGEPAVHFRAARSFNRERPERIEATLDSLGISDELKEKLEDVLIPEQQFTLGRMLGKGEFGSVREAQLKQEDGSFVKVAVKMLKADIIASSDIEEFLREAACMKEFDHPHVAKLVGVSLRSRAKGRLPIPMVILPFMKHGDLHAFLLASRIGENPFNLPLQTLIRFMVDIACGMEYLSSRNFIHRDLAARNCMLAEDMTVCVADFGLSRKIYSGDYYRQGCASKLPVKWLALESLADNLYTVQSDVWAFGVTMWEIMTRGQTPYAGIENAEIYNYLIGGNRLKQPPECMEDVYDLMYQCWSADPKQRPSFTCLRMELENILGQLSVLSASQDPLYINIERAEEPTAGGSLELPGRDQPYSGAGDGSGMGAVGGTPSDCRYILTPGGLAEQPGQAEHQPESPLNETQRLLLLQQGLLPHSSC
# [11] = biological target: Mast/stem cell growth factor receptor Kit (Homo sapiens, UniProt P10721); experiment: Inhibition of recombinant c-Kit (unknown origin) using poly (Glu,Tyr) 4:1 as substrate after 60 mins by ELISA
# Sequence of Mast/stem cell growth factor receptor Kit (P10721 whole entry): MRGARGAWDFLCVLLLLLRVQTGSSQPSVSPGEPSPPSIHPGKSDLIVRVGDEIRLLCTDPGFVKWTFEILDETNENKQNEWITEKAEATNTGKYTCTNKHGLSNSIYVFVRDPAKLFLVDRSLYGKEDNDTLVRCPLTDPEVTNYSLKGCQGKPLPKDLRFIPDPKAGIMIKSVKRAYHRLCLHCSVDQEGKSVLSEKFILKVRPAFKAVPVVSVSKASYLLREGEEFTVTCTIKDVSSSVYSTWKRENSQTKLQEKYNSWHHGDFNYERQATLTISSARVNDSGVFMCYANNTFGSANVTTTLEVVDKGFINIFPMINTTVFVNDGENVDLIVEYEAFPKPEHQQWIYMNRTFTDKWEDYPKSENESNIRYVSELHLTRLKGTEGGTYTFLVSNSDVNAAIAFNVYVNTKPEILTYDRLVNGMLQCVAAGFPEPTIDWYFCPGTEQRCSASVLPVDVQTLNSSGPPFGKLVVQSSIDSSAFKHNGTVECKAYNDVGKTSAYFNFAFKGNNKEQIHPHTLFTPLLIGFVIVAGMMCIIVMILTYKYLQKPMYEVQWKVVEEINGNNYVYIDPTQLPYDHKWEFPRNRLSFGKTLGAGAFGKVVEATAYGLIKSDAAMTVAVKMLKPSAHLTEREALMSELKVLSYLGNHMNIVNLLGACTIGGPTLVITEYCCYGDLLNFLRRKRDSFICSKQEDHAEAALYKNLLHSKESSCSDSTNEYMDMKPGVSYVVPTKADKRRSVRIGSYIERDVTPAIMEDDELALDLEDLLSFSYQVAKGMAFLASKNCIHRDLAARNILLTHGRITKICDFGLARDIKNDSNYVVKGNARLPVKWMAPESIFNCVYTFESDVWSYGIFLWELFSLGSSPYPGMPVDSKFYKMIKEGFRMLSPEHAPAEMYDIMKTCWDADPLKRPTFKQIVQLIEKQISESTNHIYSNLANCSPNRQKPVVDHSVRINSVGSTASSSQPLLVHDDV
# [12] = biological target: Platelet-derived growth factor receptor beta (Homo sapiens, UniProt P09619); experiment: Inhibition of recombinant PDGFR-beta (unknown origin) using poly (Glu,Tyr) 4:1 as substrate after 60 mins by ELISA
# Sequence of Platelet-derived growth factor receptor beta (P09619 whole entry): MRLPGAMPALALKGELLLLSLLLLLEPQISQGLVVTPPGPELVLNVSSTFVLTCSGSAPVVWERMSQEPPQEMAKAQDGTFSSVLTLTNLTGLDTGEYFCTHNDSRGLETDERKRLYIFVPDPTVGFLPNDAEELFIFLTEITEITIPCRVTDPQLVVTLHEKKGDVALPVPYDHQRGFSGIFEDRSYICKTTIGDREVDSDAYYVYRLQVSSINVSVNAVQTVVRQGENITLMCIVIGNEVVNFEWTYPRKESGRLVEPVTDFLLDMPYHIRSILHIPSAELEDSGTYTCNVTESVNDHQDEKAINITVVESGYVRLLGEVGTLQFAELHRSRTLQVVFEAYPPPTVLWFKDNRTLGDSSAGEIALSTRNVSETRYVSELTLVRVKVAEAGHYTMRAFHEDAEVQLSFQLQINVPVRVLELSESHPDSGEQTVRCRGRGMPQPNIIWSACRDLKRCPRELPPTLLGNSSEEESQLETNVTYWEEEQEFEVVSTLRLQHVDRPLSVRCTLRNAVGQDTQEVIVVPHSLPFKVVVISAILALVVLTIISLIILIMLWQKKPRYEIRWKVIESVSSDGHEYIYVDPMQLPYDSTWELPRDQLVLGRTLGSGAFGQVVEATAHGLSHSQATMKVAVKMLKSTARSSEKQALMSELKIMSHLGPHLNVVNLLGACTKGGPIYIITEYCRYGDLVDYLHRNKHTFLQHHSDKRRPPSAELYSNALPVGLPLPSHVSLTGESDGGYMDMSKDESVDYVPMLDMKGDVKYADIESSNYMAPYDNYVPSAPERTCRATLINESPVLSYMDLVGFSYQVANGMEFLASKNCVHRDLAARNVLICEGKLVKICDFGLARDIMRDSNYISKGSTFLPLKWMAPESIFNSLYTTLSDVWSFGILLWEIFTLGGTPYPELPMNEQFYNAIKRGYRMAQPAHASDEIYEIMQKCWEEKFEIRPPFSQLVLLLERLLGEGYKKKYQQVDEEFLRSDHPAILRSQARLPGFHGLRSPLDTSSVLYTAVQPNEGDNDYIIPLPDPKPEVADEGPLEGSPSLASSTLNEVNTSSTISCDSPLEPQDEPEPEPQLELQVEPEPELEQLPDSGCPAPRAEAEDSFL
# [13] = biological target: Fibroblast growth factor receptor 1 (Homo sapiens, UniProt P11362); experiment: Inhibition of recombinant human FGFR1 using poly (Glu,Tyr) 4:1 as substrate after 60 mins by ELISA
# [14] = biological target: Vascular endothelial growth factor receptor 1 (Homo sapiens, UniProt P17948); experiment: Inhibition of recombinant VEGFR-1 (unknown origin) using poly (Glu,Tyr) 4:1 as substrate after 60 mins by ELISA
# [15] = biological target: Tyrosine-protein kinase ABL1 (Homo sapiens, UniProt P00519)
# Description: Inhibition of recombinant ABL (unknown origin) using poly (Glu,Tyr) 4:1 as substrate after 60 mins by ELISA
smiles,measurement,setting,value
Cc1n[nH]c2ccc(-c3cc(N[C@@H](CO)c4ccccc4)cnc3-c3cc(Cl)ccc3O)cc12,IC50,[1],0.7 nM
same,IC50,[2],300 nM
same,IC50,[3],231 nM
same,IC50,[4],> 1000 nM
same,IC50,[5],3.1 nM
same,IC50,[6],> 10 nM
same,IC50,[7],> 100 nM
same,IC50,[8],3.9 nM
same,IC50,[9],30.9 nM
same,IC50,[10],> 1000 nM
same,IC50,[11],> 10 nM
same,IC50,[12],> 100 nM
same,IC50,[13],55.8 nM
same,IC50,[14],> 10 nM
same,IC50,[15],6.6 nM
Cc1n[nH]c2ccc(-c3cc(N[C@@H](CO)c4ccccc4)cnc3-c3ccc(F)cc3O)cc12,IC50,[1],0.4 nM
same,IC50,[2],68.5 nM
same,IC50,[3],155 nM
same,IC50,[4],> 1000 nM
same,IC50,[5],8.1 nM
same,IC50,[6],> 100 nM
same,IC50,[7],> 100 nM
same,IC50,[8],6 nM
same,IC50,[9],7.1 nM
same,IC50,[10],> 1000 nM
same,IC50,[11],> 10 nM
same,IC50,[12],1 to 10 nM
same,IC50,[13],25.2 nM
same,IC50,[14],> 10 nM
same,IC50,[15],6.1 nM
Cc1n[nH]c2ccc(-c3cc(N[C@@H](CO)c4ccccc4)cnc3-c3cc(F)ccc3O)cc12,IC50,[1],0.2 nM
same,IC50,[2],123 nM
same,IC50,[3],101 nM
same,IC50,[4],> 1000 nM
same,IC50,[5],4.7 nM
same,IC50,[6],> 10 nM
same,IC50,[7],> 100 nM
same,IC50,[8],5.7 nM
same,IC50,[9],36.9 nM
same,IC50,[10],> 1000 nM
same,IC50,[11],> 10 nM
same,IC50,[12],> 10 nM
same,IC50,[13],18 nM
same,IC50,[14],1 to 10 nM
same,IC50,[15],2.9 nM
OC[C@H](Nc1cnc(-c2cc(Cl)ccc2O)c(-c2ccc3cnccc3c2)c1)c1ccccc1,IC50,[1],0.04 nM
same,IC50,[2],45.3 nM
same,IC50,[3],93.9 nM
same,IC50,[4],196 nM
same,IC50,[5],4.2 nM
same,IC50,[6],> 100 nM
same,IC50,[7],> 100 nM
same,IC50,[8],6.4 nM
same,IC50,[9],4.4 nM
same,IC50,[10],> 1000 nM
same,IC50,[11],> 10 nM
same,IC50,[12],1 to 10 nM
same,IC50,[13],16.1 nM
same,IC50,[14],> 10 nM
same,IC50,[15],4.3 nM
